Legend:
α1 receptors = assay: Anti-α1 action: norepinephrine-induced tonic contraction of isolated thoracic aorta; settings: tonic contraction by 10^−5 M norepinephrine taken as 100%, guinea pig thoracic aorta
Protocol: The thoracic aorta of each Hartley male guinea pig (body weight: 300-500 g) was excised. A preparation cut in a helical form was suspended under 1 g load in a Magnus cylinder filled with the Tyrode solution which had been aerated with a gas mixture of 95% O2 and 5% CO2 and maintained at 37° C. Using an isometric transducer (“TB-612J”, manufactured by Nihon Kohden Corporation) and a pressure preamplifier (“AP-620G”, manufactured by Nihon Kohden Corporation), variations in tension were measured. The isometric tensions were recorded on a thermal pen-writing recorder (“WT-647G”, manufactured by Nihon Kohden Corporation). Taking the tonic contraction induced by 10^−5 M norepinephrine (NE) as 100%, the percent contractions upon addition of each test drug at 10^−8 M and 10^−7 M were determined and recorded as α1 action.

serotonin-2 receptors = assay: Anti-serotonin (5-HT) action: 5-HT-induced contraction of isolated superior mesenteric artery; settings: contraction by 10^−5 M 5-HT taken as 100%, guinea pig superior mesenteric artery
Protocol: (2) Anti-serotonin (5-HT) Action
A preparation cut in a helical form was suspended under resting tension of 0.3 g in a Magnus cylinder filled with the Tyrode solution which had been aerated with a gas mixture of 95% O2 and 5% CO2 and maintained at 37° C. Using an isometric transducer (“UL-10”, manufactured by SHINKOH K.K.) and a pressure preamplifier (“DSA-605A”, manufactured by SHINKOH K.K.), variations in tension were measured. The isometric tensions were recorded on a pen-writing recorder (“VP-6537A”, manufactured by NATIONAL K.K.). Taking the contraction induced by 10^−5 M serotonin (5-HT) as 100%, the percent contractions by 10^−5 M 5-HT in the presence of each test drug at 10^−7 M and 10^−6 M were determined as anti-5-HT action.

Compound	Anti α1 action (% of Control) (α1 receptors; test drug 10^−7 M)	Anti α1 action (% of Control) (α1 receptors; test drug 10^−8 M)	Anti 5-HT action (% of Control) (serotonin-2 receptors; test drug 10^−6 M)	Anti 5-HT action (% of Control) (serotonin-2 receptors; test drug 10^−7 M)
CN1CCC(=NO)c2c(ccn2CCCCN2CCC(C(=O)c3ccc(F)cc3)CC2)S1(=O)=O [Compound 29, 6-[4-[4-(4-fluorobenzoyl)piperidino]-butyl]-5-hydroxyimino-2-methyl-3,4,5,6-tetrahydro-2H-pyrrolo[2,3-f][1,2]thiazepine 1,1-dioxide]	33.4 % of Control	83.1 % of Control	32.5 % of Control	79.0 % of Control
CN1CC(=NO)c2c(ccn2CCCCN2CCC(C(=O)c3ccc(F)cc3)CC2)S1(=O)=O [Compound 28, 5-[4-[4-(4-fluorobenzoyl)piperidino]-butyl]-4-hydroxyimino-2-methyl-2,3,4,5-tetrahydropyrrolo[2,3-e][1,2]thiazine 1,1-dioxide]	45.8 % of Control	80.0 % of Control	30.2 % of Control	73.5 % of Control
CN1CC(=O)c2c(ccn2CCCCN2CCC(C(=O)c3ccc(F)cc3)CC2)S1(=O)=O [Compound 22, 5-[4-[4-(4-fluorobenzoyl)piperidino]butyl]-2-methyl-2,3,4,5-tetrahydropyrrolo[2,3-e][1,2]thiazin-4-one 1,1-dioxide]	43.2 % of Control	66.6 % of Control	41.1 % of Control	80.4 % of Control

Reference: patent US6743913B2, “Pyrrolothiazine and pyrrolothiazepine compounds having serotonin-2 receptor antagonistic and α-1-blocking action” (Daiichi Suntory Pharma Co., Ltd., priority 1997, dated 2004)
